Measured values taken from patent US5393785A, “Therapeutic antiestrogens” (Endorecherche, Inc., priority 1992, dated 1995).

Columns and labels:
[1] = test system: estradiol-induced stimulation of uterine weight; assay: inhibition of estradiol-induced stimulation of uterine weight in ovariectomized mice; type: in vivo, Balb/c mice
Protocol: FIG. 2 illustrates the effect of the indicated doses of EM-142 injected twice daily (b.i.d.) on uterine weight (mg) in adult female ovariectomized Balb/C mice treated for 4.5 days in the presence or absence of simultaneous treatment with 17β-estradiot (0.01 μg, b.i.d.). […] EM-142, and/or estradiol contained in ethanol were injected subcutaneously in the appropriate groups in a solution of 0.9% (w/v) sodium chloride and 1% (w/v) gelatin at different concentrations in 0.2 ml for EM-142, twice daily, starting on the day of ovariectomy for a total of 9 injections. Estradiol was injected at the dose of 0.01 μg in 0.2 ml, twice daily, starting on the morning after ovariectomy for a total of 8 injections. After sacrifice, the uteri were rapidly removed, freed from fat and connective tissue and weighted. Results shown in FIG. 2 are the means ± SEM of groups of 9-10 mice.

[2] = test system: rat uterine cytosol estrogen receptor; assay: competition binding on rat uterine cytosol estrogen receptor with [3H]estradiol; conditions: incubation at 25° C. for 3 hours; [3H]estradiol competition
Protocol: FIG. 1 illustrates a competition binding assay of the affinity of estradiol, diethylstilbestrol, ICI 164384 (Wakeling A. E. and Bowler J., 1987; J. Endocr. 112, R7-R10) and EM-142 (an antiestrogen in accordance with the invention synthesized in example 1, herein) for the rat uterine cytosol receptor (Asselin et al., 1978; J. Steroid Biochem. 9:1079-1082).
EM-142 from example 1 was tested by competition binding on the rat uterine cytosol estrogen receptor with [^3 H]estradiol according to Asselin et al. (1976) procedure. […] (Incubation was performed at 25° C. for 3 hours).

[3] = test system: advanced breast cancer; conditions: cited from earlier work

Row | binding potency relative to 17β-estradiol (times less potent) [2] [times] | Structure (SMILES) | effect on E2-induced uterine growth at 0.3 μg ([1]; 0.3 μg s.c. twice daily, 9 injections, estradiol 0.01 μg b.i.d.) | effect on estrogenic action at 20 μg ([1]; 20 μg s.c. twice daily, 9 injections, estradiol 0.01 μg b.i.d.) | estrogenic (agonistic) effect on uterine weight ([1]; EM-142 in absence of estradiol, s.c. twice daily) | dose giving half-maximal inhibitory effect on E2-induced uterine growth ([1]; s.c. twice daily, 9 injections, estradiol 0.01 μg b.i.d.) | binding potency compared with ICI 164384 [2] | women patients treated with remission of advanced breast cancer [3]
1 | 3 | CCCCN(C)C(=O)CCCCCCCCCCC(=C(CC)c1ccc(O)cc1)c1ccc(O)cc1 [EM-142, N-butyl,N-methyl-12,13-Bis (4-hydroxyphenyl)-12-pentadecenoic amide] | significant inhibitory effect | complete reversal of estrogenic action | no estrogenic effect on uterine weight | approximately 3 μg | more potent than the antiestrogen ICI 164384 | 
2 |  | CC/C(=C(\c1ccccc1)c1ccc(OCCN(C)C)cc1)c1ccccc1 [Tamoxifen] |  |  |  |  |  | about 30%
